According to PMC6208607, “Transport of Pregabalin Via L-Type Amino Acid Transporter 1 (SLC7A5) in Human Brain Capillary Endothelial Cell Line” (Pharmaceutical Research, 2018):

What was measured:
[1] = target: T1, L-type amino acid transporter 1 (LAT1) (Homo sapiens, UniProt Q01650); assay: inhibition of pregabalin uptake in hCMEC/D3 cells at […] (LAT1 role supported by siRNA); format: cell-based; set-up: gene SLC7A5; endogenous LAT1 in hCMEC/D3 cells; details: read-out: Uptake (% of Control)
[2] = target: T1, L-type amino acid transporter 1 (LAT1); assay: LC-MS/MS uptake in LAT1-overexpressing HEK293 cells vs mock; inhibition of […]L-leucine uptake at […]; format: cell-based; set-up: gene SLC7A5; entire coding region for human SLC7A5, expressed in HEK293 cells; with 4F2 heavy chain (4F2hc), endogenous

T1 sequence (Q01650 whole entry): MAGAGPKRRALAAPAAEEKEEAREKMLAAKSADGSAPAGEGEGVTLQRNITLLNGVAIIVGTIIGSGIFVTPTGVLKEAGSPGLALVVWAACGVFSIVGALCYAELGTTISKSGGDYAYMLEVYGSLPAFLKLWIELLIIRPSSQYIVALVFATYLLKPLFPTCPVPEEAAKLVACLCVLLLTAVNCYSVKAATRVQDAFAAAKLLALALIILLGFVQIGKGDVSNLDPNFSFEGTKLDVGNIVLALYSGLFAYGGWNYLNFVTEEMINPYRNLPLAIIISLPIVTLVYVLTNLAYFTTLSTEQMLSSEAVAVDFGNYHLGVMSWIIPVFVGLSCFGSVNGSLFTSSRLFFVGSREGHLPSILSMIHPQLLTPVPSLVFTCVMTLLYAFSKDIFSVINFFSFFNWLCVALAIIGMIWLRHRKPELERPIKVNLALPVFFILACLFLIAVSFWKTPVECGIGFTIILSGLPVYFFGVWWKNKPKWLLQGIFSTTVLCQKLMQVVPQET
T1 sequence (P08195 103-630 partner): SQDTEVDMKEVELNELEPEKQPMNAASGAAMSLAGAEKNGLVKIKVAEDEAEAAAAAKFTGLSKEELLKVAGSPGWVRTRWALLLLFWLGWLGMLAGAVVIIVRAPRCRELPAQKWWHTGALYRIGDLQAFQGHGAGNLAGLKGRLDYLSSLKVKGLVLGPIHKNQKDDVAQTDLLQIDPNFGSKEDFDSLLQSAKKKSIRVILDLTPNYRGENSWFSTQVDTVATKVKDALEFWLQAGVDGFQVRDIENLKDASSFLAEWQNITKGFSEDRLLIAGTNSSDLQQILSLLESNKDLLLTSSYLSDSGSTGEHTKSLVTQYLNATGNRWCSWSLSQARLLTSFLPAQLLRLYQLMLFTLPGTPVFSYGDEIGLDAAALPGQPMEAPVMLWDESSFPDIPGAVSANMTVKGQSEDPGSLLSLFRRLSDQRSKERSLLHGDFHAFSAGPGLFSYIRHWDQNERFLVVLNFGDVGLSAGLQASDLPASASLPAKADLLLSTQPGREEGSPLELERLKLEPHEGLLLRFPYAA

| Compound | remaining activity at 10 µM [1] [%] | Km [2] [µM] |
| --- | --- | --- |
| Nc1cc(COc2c(Cl)cc(C[C@H](N)C(=O)O)cc2Cl)c2oc(-c3ccccc3)nc2c1 [JPH203] | < 6.53 |  |
| CC(C)C[C@H](CN)CC(=O)O [pregabalin] |  | 288 |
